Measured values: patent US20060167229A1, “Biologically active peptide conjugates” (priority 2002, published 2006)
Marks after values point to notes of the source that are not given here. Ends that are not written are not given here.

How the values were obtained:
Format in all cases: in vivo, BALB/c mice
NK cell = NK cell cytotoxicity activity test (spleen cells of treated mice against YAC-1 target cells, MTT); conditions: for NK cell cytotoxic activity, X ± SD (%): healthy mice; for effect on the cytotoxic activity of NK cells (summary): statistically significant difference from saline in any of the dosage groups 0.5-500 μg/kg/day
Protocol: (§1) The above substances were all dissolved in 0.5 ml saline and injected intraperitoneal (i.p.) for 15 continuous days, once per day.
(§2) Ten mice per group. The day after the last test substance administration, the mice were sacrificed by cervical dislocation. The spleen was isolated aseptically and manually dispersed in cold D-Hank's solution using an injection needle. The dispersed cell suspension was further sieved through a 100 gauge 150 μm diameter stainless steel sieve. After centrifugation at 200 g for 10 minutes, the supernatant was discarded. The cell pellet was re-suspended in 10 volume of Tris-NH4Cl buffer and then kept standing still for 10 minutes at room temperature. The suspended cells were collected by centrifugation at 150 g for 10 minutes. The cells were washed 2-4 times with cold D-Hank's solution by re-suspending and collecting by centrifugation with condition as described above. The washed cells were then diluted to the desired cell densities by RPMI-1640 culture medium, containing 10% fetal bovine serum.
Mice spleen cells were prepared to 4×10^6/ml as described in section 1.1 above. Target cells YAC-1 were brought to log phase and adjusted to 1×10^5/ml. Using a 96 wells cell culture plate, […] were added to the control well containing only the spleen cells; […] and 100 μl culture medium were added to the control well containing only target cells; 100 μl mouse spleen cells and 100 μl target cells were added to the NK activity assay well. Three parallel sets of the above were prepared per mouse.
Samples were centrifuged at 150 g for 10 minutes to collect the cells. The supernatant was discarded and 50 μl/well MTT of 1 mg/ml was added. The reaction-mixture was then shaken for 2 minutes, and incubated at 37° C., 5% CO2 for 4 hours. The supernatant was discarded after centrifugation at 150 g for 10 minutes. […] 40 mM HCl-2-propanol was added and shaken for 3 minutes. An ELISA reader was used to obtain OD570 nm of each well referenced at 630 nm.

anti-SRBC antibody = assay: Sheep Red Blood Cell (SRBC) hemolysis test, antibody formation; conditions: for anti-SRBC antibody formation, X ± SD (Unit): healthy mice, SRBC day 12 (IFN-γ, IL-2 3×10^5 IU/kg/day), saline 32 ± 7; for effect on the synthesis of anti-SRBC antibody upon the antigenic challenge (summary): statistically significant difference from saline in any of the dosage groups 0.5-500 μg/kg/day
Protocol: Sheep red blood cells (SRBC) were prepared by collecting blood from cervical vein and put into a sterile flask with glass beads. The flask was shaken for 3 minutes and the blood then mixed with Alsever solution (glucose 2.05 g, NaCl 0.4 g, […] 0.8 g, adjust to 100 ml with distilled water) and stored at 4° C. Immediately before use, samples were centrifuged at 130 g, 5 minutes to collect the SRBC. The cells were washed two times by re-suspension and centrifugation in normal saline. Then the cell pellet was collected by centrifugation at 180 g for 10 minutes and re-suspended in saline to make the final working SRBC suspension, 2% (v/v).
Complement was prepared by adding 10 volumes of fresh Cavy serum into one volume centrifuge packed SRBC, and then gently shaking for 30 minutes at 4° C. The SRBC was removed by centrifugation at 200 g for 10 minutes. 10 volumes of normal saline were added to obtain the working complement solution.
The test substances were administered as described in section 1.1, plus intraperitoneal injection 0.2 ml SRBC per mouse on day 12. On the day after the last test substance administration (day 16), blood was collected from the eye canthus and left at room temperature for one hour for serum exudation. After centrifugation at 200 g for 10 minutes, the serum was diluted by 500 times with normal saline.
To 1 ml diluted mouse serum of each mouse, 0.5 ml SRBC suspension was added. Ice cold. Then 1 ml working complement solution was added and incubated at 37° C. water bath for 10 minutes. Reactions were terminated by ice cold. Samples were then centrifuged at 200 g for 10 minutes to obtain the supernatant.
To 1 ml of this supernatant, 3 ml Drabkin solution was added and left at room temperature for 10 minutes. OD540 nm was obtained.
Reference OD540 nm was obtained by mixing 0.25 ml SRBC suspension with Drabkin solution to 4 ml and placed at room temperature for 10 minutes before OD540 nm was taken.
Sample serum index=(OD540 nm of test sample÷reference OD540 nm)×500

thymus gland = assay: Immunity organ weight test, thymus gland index; conditions: for weight of thymus gland (thymus gland index), X ± SD (%): healthy mice, saline 0.12 ± 0.02; for effect on the weight of the thymus gland (summary): statistically significant difference from saline in any of the dosage groups 0.5-500 μg/kg/day
Protocol: (§3) One day after the last test substance administration (day 16), the liver, spleen, and thymus gland were separated and blotted dry with filter paper and weighed. The phagocytosis index α was calculated as below: α=(^3√{square root over ( )}K)(W÷WLS)
Thymus gland index (%)=(thymus weight/body weight)×100%

spleen = assay: Immunity organ weight test, spleen index; conditions: for weight of spleen (spleen index), X ± SD (%): healthy mice, saline 0.53 ± 0.05; for effect on the weight of the spleen (summary): statistically significant difference from saline in any of the dosage groups 0.5-500 μg/kg/day
Protocol: as §3
Spleen index (%)=(spleen weight/body weight)×100%

T lymphocyte = T lymphocyte transformation test (ConA-stimulated spleen cells of treated mice, MTT); conditions: for X ± SD (stimulation index): healthy mice, saline 1.3 ± 0.1; for effect on T lymphocyte transformation (summary): statistically significant difference from saline in any of the dosage groups 0.5-500 μg/kg/day
Protocol: as §1, §2
Spleen cells of density 1×10^6/ml were placed onto a 96 wells cell culture plate, 100 μL/well, three parallel wells each of the assay sample and control sample per mouse. To the assay wells, 100 μl/well ConA of 100 μg/ml in RPMI-1640 was added, and […] plain RPMI-1640 was used for the controls. The cells were incubated for 66 hrs at 37° C., 5% CO2. The cells were then pelleted by centrifugation at 150 g for 10 minutes.
50 μl/well MTT of 1 mg/ml in RPMI-1640 was added to the cell pellet and the cells re-suspended by shaking for 2 minutes. The incubation was continued for 4 hours. The supernatant was discarded after centrifugation at 150 g for 10 minutes. 120 μl 40 mM HCl-2-propanol was added to the cell pellet and shaken for 3 minutes. […]
Each mouse formed three assay wells and three control wells. The Stimulation Index (SI) of each mouse was obtained by first deriving the average OD of the three parallel wells, then dividing the value of the assay wells by the control wells.

mononuclear phagocyte = assay: Carbon particle clearance test, phagocytosis function; set-up: key to X ± SD (phagocytotic index): α = cube root of K × (body weight ÷ liver+spleen weight)
Protocol: On the next day after the last test substance administration (day 16), the mice were injected with […] body weight India ink (5 times dilution with normal saline) from the tail vein.
One minute and five minutes after Indian ink injection, 20 μl blood was obtained from the eye canthus with a heparinized tubing. The blood was mixed with 2 ml 0.1% w/v Na2CO3 and then OD680 nm obtained. The outline clear index K was calculated by the following formula: K=(lgA1−lgA2)÷(t2−t1)
as §3

[1] = peptide 500 μg/kg/day i.p. 15 days (IFN-γ, IL-2 3×10^5 IU/kg/day), saline 63 ± 9
[2] = peptide 0.5 μg/kg/day i.p. 15 days
[3] = peptide 5 μg/kg/day i.p. 15 days
[4] = peptide 50 μg/kg/day i.p. 15 days
[5] = peptide 500 μg/kg/day i.p. 15 days
[6] = peptide 5 μg/kg/day i.p. 15 days (IFN-γ, IL-2 3×10^5 IU/kg/day)
[7] = peptide 50 μg/kg/day i.p. 15 days (IFN-γ, IL-2 3×10^5 IU/kg/day)
[8] = peptide 500 μg/kg/day i.p. 15 days (IFN-γ, IL-2 3×10^5 IU/kg/day)
[9] = peptide 0.5 μg/kg/day i.p. 15 days (IFN-γ, IL-2 3×10^5 IU/kg/day)

| Substance | NK cell cytotoxic activity, X ± SD (%) (NK cell; [1]) | effect on the cytotoxic activity of NK cells (summary) (NK cell) | anti-SRBC antibody formation, X ± SD (Unit) (anti-SRBC antibody; [2]) | anti-SRBC antibody formation, X ± SD (Unit) (anti-SRBC antibody; [3]) | anti-SRBC antibody formation, X ± SD (Unit) (anti-SRBC antibody; [4]) | anti-SRBC antibody formation, X ± SD (Unit) (anti-SRBC antibody; [5]) | effect on the synthesis of anti-SRBC antibody upon the antigenic challenge (summary) (anti-SRBC antibody) | weight of thymus gland (thymus gland index), X ± SD (%) (thymus gland; [6]) | weight of thymus gland (thymus gland index), X ± SD (%) (thymus gland; [7]) | effect on the weight of the thymus gland (summary) (thymus gland) | weight of spleen (spleen index), X ± SD (%) (spleen; [5]) | effect on the weight of the spleen (summary) (spleen) | X ± SD (stimulation index) (T lymphocyte; [8]) | effect on T lymphocyte transformation (summary) (T lymphocyte) | weight of thymus gland (thymus gland index), X ± SD (%) (thymus gland; [8]) | weight of thymus gland (thymus gland index), X ± SD (%) (thymus gland; [9]) | also measured |
| --- | --- | --- | --- | --- | --- | --- | --- | --- | --- | --- | --- | --- | --- | --- | --- | --- | --- |
| Ala Ala Phe [CMS023] | 79 ± 12 | increase | 108 ± 21*^@^ Unit | 166 ± 27*^@^ Unit | 84 ± 11*^@^ Unit | 110 ± 45*^@^ Unit | enhance | 0.23 ± 0.06 % | 0.20 ± 0.02*^@^ % | increase | 0.36 ± 0.06 | decrease | – | – | – | – | – |
| Phe Asn Glu Gln (FNEQ; printed: Phe Asn Glu Gln) [CMS029] | 87 ± 4 | increase | 18 ± 7 Unit | 147 ± 23*^@^ Unit | 143 ± 13*^@^ Unit | 115 ± 22*^@^ Unit | – | 0.21 ± 0.03 % | 0.18 ± 0.05 % | increase | – | decrease | 1.7 ± 0.3 | enhance | 0.22 ± 0.04*^@^ % | – | weight of spleen (spleen index), X ± SD (%) (spleen; Table 28, peptide 5 μg/kg/day (so in the source) i.p. 15 days (IFN-γ, IL-2 3×10^5 IU/kg/day)): 0.42 ± 0.04 % |
| Phe Gln Ser Phe (FQSF; printed: Phe Gln Ser Phe) [CMS033] | 89 ± 8 | increase | 78 ± 12*^@ Unit | 128 ± 39*^@^ Unit | 112 ± 15*^@^ Unit | 143 ± 27*^@^ Unit | enhance | 0.20 ± 0.02 % | 0.18 ± 0.03 % | increase | – | – | – | – | 0.25 ± 0.04*^@^ % | – | – |
| Phe Glu Gln Asn Met (FEQNM; printed: Phe Glu Gln Asn Met) [CMS027] | 88 ± 8 | increase | 99 ± 14*^@^ Unit | 117 ± 45*^@^ Unit | 93 ± 11*^@^ Unit | – | enhance | – | 0.21 ± 0.03*^@^ % | increase | 0.37 ± 0.03 | decrease | – | – | 0.20 ± 0.03*^ % | – | X ± SD (phagocytotic index) (mononuclear phagocyte; healthy mice, peptide 0.5 μg/kg/day i.p. 15 days (IFN-γ, IL-2 3×10^5 IU/kg/day), saline 5.1 ± 0.6): 6.4 ± 0.6; effect on the phagocytotic activity of mononuclear phagocyte (summary) (mononuclear phagocyte; statistically significant difference from saline in any of the dosage groups 0.5-500 μg/kg/day): enhance |
| TTYNSIM [CMS026] | 89 ± 7 | increase | 19 ± 6 Unit | 191 ± 17*^@^ Unit | 98 ± 9*^@^ Unit | – | – | 0.31 ± 0.05*^@^ % | 0.27 ± 0.02*^@^ % | increase | – | – | – | – | 0.20 ± 0.03*^ % | 0.21 ± 0.05 % | NK cell cytotoxic activity, X ± SD (%) (NK cell; peptide 50 μg/kg/day i.p. 15 days (IFN-γ, IL-2 3×10^5 IU/kg/day), saline 56 ± 8): 76 ± 9 % |
| VVYPWTQRF [CMS002] | – | increase | 4 ± 1 Unit | – | – | 87 ± 18*^@ Unit | – | 0.24 ± 0.05*^ % | 0.21 ± 0.02*^@^ % | increase | – | – | 1.8 ± 0.3 | enhance | – | 0.26 ± 0.06*^@^ % | X ± SD (stimulation index) (T lymphocyte; [7]): 2.6 ± 0.3*^@^; NK cell cytotoxic activity, X ± SD (%) (NK cell; peptide 0.5 μg/kg/day i.p. 15 days (IFN-γ, IL-2 3×10^5 IU/kg/day), saline 58 ± 7): 76 ± 9 % |
